Earlier results in article PMC3341490 (Nuclear Medicine and Biology, 2012).

Columns and labels:
[1] = copper complex; ref [24]
[2] = test system: GRPR-expressing, PC-3 xenografted tumors in SCID mice

Compound: O=C(O)CN1CCN(CC(=O)O)CCN(CC(=O)O)CC1 [NOTA, 1,4,7-triazacyclononane-1,4,7-triacetic acid]
- stability constant (log K) [1]: 21.6

Compound: O=C(O)CN1CCN(CC(=O)O)CCN(CC(=O)O)CCN(CC(=O)O)CC1 [DOTA, 1,4,7,10-tetraazacyclododecane-1,4,7,10-tetraacetic acid]
- stability constant (log K) [1]: 22.3

Compound: ^64Cu-NO2A-Aoc-BN(7-14)
- PC-3 tumor uptake ([2]; 1 hour, ref [18]-[19]): 3.59 % ID/g
- retention of radioactivity in the tumor, relative to 1 h ([2]; 24 h vs 1 h, ref [19]): 28%

Compound: O=C(O)CN1CCCN(CC(=O)O)CCN(CC(=O)O)CCCN(CC(=O)O)CC1 [TETA]
- stability constant (log K) [1]: 21.7
